# Data taken from US20050287163A1, “Mycoplasma polypeptides” (priority 2002, published 2005).
# “Also recorded” adds a separate entry of the source.
# What was measured:
# [1] = test system: M. hyopneumoniae-induced [Ca2+]i increase in porcine ciliated tracheal cells; assay: Effect of pretreatment of tracheal cells on M. hyopneumoniae-induced [Ca2+]i increase; type: cell-based
# Procedure: (§1) The following techniques were used to obtain [Ca^2+]i measurements in single cells. The tracheal cells were loaded with 4 μM fura-2 acetoxymethyl ester (fura-2AM) in Krebs-Ringer bicarbonate (KRB) buffer solution containing: 136 mM NaCl, 4.8 mM KCl, 1.5 mM CaCl2, 1.2 mM KH2PO4, 1.2 mM MgSO4, 10 mM HEPES, 5.5 mM glucose, and 0.1% BSA, pH 7.4 and incubated for 30 minutes at 37° C. The loaded cells were centrifuged (700× g, 2 minutes), then resuspended with KRB at a concentration of 500-1000 cells/mL. The tracheal cells loaded with fura-2AM were plated onto poly-lysine-coated coverslips in a custom-made Petri dish. The dish containing fura-2 loaded cells was mounted on the stage of an inverted fluorescence microscope (Carl Zeiss, NY). Only viable ciliated tracheal cells were focused on for the determination of [Ca^2+]i at 24° C. The fura-2 loaded porcine ciliated tracheal cells deteriorated quickly at 37° C. Fluorescence images were obtained (excitation wavelengths of 334 and 380 nm; emission wavelength of 510±20 nm) and used to generate spatially resolved maps of [Ca^2+]i by subtracting the background dividing the images on a pixel-by-pixel basis. The emitted signals were digitalized, recorded, and processed using the Attofluor digital fluorescence imaging system (Atto Instruments, Rockville, Md.). After reading fluorescence for 150 seconds, mycoplasmas were mixed with the cell system. [Ca^2+]i was calculated as previously described (Grynkiewicz et al., J. Biol. Chem., 260:3440-3450 (1985)). Calibration was performed in situ according to the procedure provided by Atto Instruments, using Fura-2 penta K^+ as a standard.
# To investigate the pathway of Ca^2+ signaling, pertussis toxin (PTX, 100 ng/mL) was preincubated with tracheal cells for 3 hours. Cells were pretreated with thapsigargin (TG, 1 μM) for 30 minutes at 37° C. prior to the addition of the mycoplasmas to deplete the ER Ca^2+ store (Thastrup et al., Proc. Natl. Acad. Sci. USA, 87:2466-2470 (1990)). […] To confirm that mycoplasmas increased [Ca^2+]i by activating a Gi/o protein, Mas 7 (10 μM), an activator of this protein (Higashijima et al., J. Biol. Chem., 265:14176-14186 (1990)), was used to determine if it can increase [Ca^2+]i in tracheal cells. In addition, it was determined whether PTX can block the increase in [Ca^2+]i due to Mas 7.
# [2] = test system: porcine ciliated tracheal epithelial cells; assay: [Ca2+]i measurement in single fura-2 loaded ciliated tracheal cells; type: cell-based
# Procedure: Tracheal cells were isolated as previously described (Young et al., Vet. Microbiol., 71:269-279 (1999)). Briefly, the tracheas were removed from 3-6 month old specific-pathogen-free pigs anesthetized with sodium pentobarbital using aseptic techniques. The ciliated cells were dissociated using 0.15% pronase and 0.01% DNase in Ca^2+- and Mg^2+-free MEM medium, which was incubated at 4° C. for 24 hours. The epithelial cells were collected by centrifugation at 125× g for 5 minutes. The cell pellets were resuspended in a mixture of DMEM (high glucose) and Ham's F-12 (1:1) media containing 5% FBS, 0.12 U/mL of insulin, and 100 U/mL of penicillin-streptomycin. Cell suspensions were transferred to 90-mm tissue culture dishes and incubated in 5% CO2 for 60-90 minutes to remove fibroblasts. The tracheal epithelial cells were stored in liquid nitrogen until use.
# as §1
# To compare the [Ca^2+]i of tracheal cells response to pathogenic M. hyopneumoniae strain 91-3, avirulent M. hyopneumoniae, and M. flocculare, the cells were treated with the same concentration of 300 μg/mL. One to five ciliated single tracheal cells in each experiment were selected to investigate the [Ca^2+]i changes. The mycoplasmas were maintained on ice before being applied to tracheal cells.
# Data on [Ca^2+]i were analyzed by ANOVA or by Student's t-test. The significance level was set at P<0.05.
# [3] = test system: Mhyo membrane-induced [Ca2+]i increase in ciliated tracheal cells; assay: Protease pretreatment of Mhyo membrane, effect on membrane-induced [Ca2+]i increase; type: cell-based, porcine
# Procedure: FIG. 6 contains four graphs plotting [Ca^2+]i response in ciliated porcine tracheal cells inoculated with Mhyo membranes. Each trace indicates the [Ca^2+]i changes in each tracheal cell. The arrows indicate when administration occurred. (A) The membrane preparation (100 μg/mL) increased [Ca^2+]i. (B) Digestion with proteinase K blocked the membrane-induced increase in [Ca^2+]i. The membrane (100 μg/0.1 mL PBS) was incubated with proteinase K (2 μg) at 37° C. for 8 hours before it was applied to tracheal cells in 0.9 mL Krebs-Ringer bicarbonate (KRB) buffer. (C) Digestion with trypsin potentiated the membrane-induced increase in [Ca^2+]i. The membrane (100 μg/0.1 mL PBS) was incubated with trypsin (6 μg) at 37° C. for 30 minutes before it was applied to tracheal cells in 0.9 mL KRB. […] The soluble protein was prepared by subjecting the trypsinized membrane to ultracentrifigation (100,000× g, 60 minutes) to obtain the supernatant.
# Mycoplasmas lack cell walls and have only one type of membrane, the plasma membrane (Razin S. (1993) Mycoplasma membranes as models in membrane research (Chapter 2), In: Subcellular Biochemistry. Vol 20: Mycoplasma Cell Membranes, edited by Rottem S, Kahane I. Plenum Press, New York. pp. 1-28). The Mhyo membrane was prepared by osmotic lysis of the organisms and tested to determine if it increased [Ca^2+]i in ciliated tracheal cells. […]
# [4] = test system: guinea pig tracheal epithelia; conditions: trypsin 0.1 U/mL; cited from earlier work
# [5] = test system: Mas 7-induced [Ca2+]i increase in ciliated tracheal cells; assay: Effect of PTX pretreatment on Mas 7-induced [Ca2+]i increase; type: cell-based, porcine; conditions: PTX pretreatment (100 ng/mL, 3 hours); Mas 7 10 μM
# Procedure: as §1, with “Only viable ciliated tracheal cells were focused on for the determination of [Ca^2+]i at 24° C. The fura-2 loaded porcine ciliated tracheal cells deteriorated quickly at 37° C.” left out, “Calibration was performed in situ according to the procedure provided by Atto Instruments, using Fura-2 penta K^+ as a standard.” left out
compound,measurement,setting,value
COc1ccc2c(c1)CC[C@@H]1[C@@H]2CC[C@]2(C)[C@@H](NCCCCCCN3C(=O)C=CC3=O)CC[C@@H]12 [U-73122],effect on M. hyopneumoniae-induced [Ca2+]i increase,"[1]; pretreatment 2 μM, 100 seconds, U-73122",abolished; also recorded: prevented
Mastoparan 7,[Ca2+]i after administration,"[2]; 10 μM, from basal level of 103±4 nM, n=9 cells",351 ± 24 nM
same,cells that responded,[2]; Mas 7 10 μM,82%
same,time to [Ca2+]i increase,[2]; Mas 7 10 μM,≤ 100 s
same,effect on [Ca2+]i,[2]; Mas 7 administration,increased
COc1ccc2c(c1)CC[C@@H]1[C@@H]2CC[C@]2(C)[C@@H](NCCCCCCN3C(=O)CCC3=O)CC[C@@H]12 [U-73343],cells that responded to mycoplasma with pretreatment,[1]; U-73343 2 μM,82%
same,peak [Ca2+]i after mycoplasma with pretreatment,"[1]; U-73343 2 μM, basal: 90±12 nM, 10 cells",330 ± 25 nM
same,effect on M. hyopneumoniae-induced [Ca2+]i response,"[1]; pretreatment 2 μM, inactive analogue U-73343",did not prevent
trypsin,effect of trypsin alone on [Ca2+]i,[2]; trypsin alone at ≧1 U/mL,increase
same,effect of trypsin pretreatment on membrane-induced [Ca2+]i increase,[3]; pretreatment of the membrane for 30 minutes,potentiated
same,effect of trypsin pretreatment on membrane-induced [Ca2+]i increase,[3]; pretreatment of the membrane for 16 hours,failed to reduce
same,effect on [Ca2+]i,[4],can increase
pertussis toxin,effect on M. hyopneumoniae-induced [Ca2+]i increase,"[1]; pretreatment 100 ng/mL, 3 hours",abolished
same,effect on Mas 7-induced [Ca2+]i increase,[5],abolished
C/C=C(/C)C(=O)O[C@H]1C(C)=C2[C@H]([C@@H]1OC(=O)CCCCCCC)[C@@](C)(OC(C)=O)C[C@H](OC(=O)CCC)[C@@]1(O)[C@H]2OC(=O)[C@@]1(C)O [thapsigargin],effect on M. hyopneumoniae-induced [Ca2+]i increase,"[1]; pretreatment 1 μM, 30 minutes, mycoplasma 300 μg/mL",abolished
